Experimental data published in US7927634B2, “Compositions and methods for treating angiogenesis-related diseases, wounds and cosmetic use of components of Angelica sinensis, and methods of preparation thereof” (Sunny Biodiscovery, Inc., priority 2004, dated 2011).

Experiments:
[1] = tested on: bovine endothelial cells; assay: Tridimensional tube formation assay, in vitro; type: cell-based; conditions: bFGF positive control, 15 ng/ml or 10 ng/ml; 2-5 weeks; FIG. 3C
Description: FIG. 3. Tridimensional tube formation assay, in vitro. A: Capillary endothelial cells form a monolayer in the absence of a remodeling stimulus. B: SBD.4 (5 μg/ml, purified by HPLC) induces remodeling of the monolayer that culminates in a tridimensional network of capillary structures. […]
In this model, capillary-like structures are induced by plating bovine endothelial cells (about 8000 cells per well) in a 96 well tissue culture-treated plate (Costar) in DMEM supplemented with 5% calf serum (Hyclone, Logan, Utah), with or without an endothelial cell stimulatory growth factor. […] Cells grown without such factor form a monolayer (FIG. 3A).

[2] = tested on: full thickness excisional wounds in genetically diabetic mice; assay: Wound closure in genetically diabetic mice; type: in vivo, mouse; conditions: for Becaplermin (% closure): median, becaplermin 5 ug/wound in CMC gel, n = 6; for Stimulation by becaplermin relative to Control (control = 1): ratio of median closure, becaplermin 5 ug/wound
Source text: We have chosen to use the genetically diabetic mice (13 week old female BKS Cg-m +/+ Lepr(db), stock # 642, Jackson Labs) because it is an optimal model reflecting the impaired wound healing in a segment of the population particularly vulnerable to chronic wounds—the diabetic patients. This genetically diabetic mouse model is well established as documented by over 50 publications (for example see Tsuboi et al., 1992). Many companies have also used it as a standard pre-clinical model, including Johnson & Johnson, which included it in the pre-clinical data package submitted to FDA as part of their IND application for becaplermin. […]
Twelve mice were divided in 2 groups and 8 mm (diameter) full thickness excisional wounds were performed under anesthesia on each side of the animal with a punch biopsy tool and covered by sterile gauze (occlusive dressings were not used as they considerably delay wound healing, according to the experience of the Principal Inventor and to the published reports (Lasa et al., 1993). The number of animals per group was based on the previous publications with this model; Jacobi et al., 2002). In Group 1 (the experimental treatment group), one wound on each animal was treated by 50 ul of “high” concentration of SBD.4 (10 mg per wound) and the other one by 50 ul of “low” concentration of SBD.4 (2 mg per wound). In Group 2 (negative control), both wounds were treated by PBS (phosphate buffered saline). Treatments were applied on the first day and every second day thereafter. Wound surface were measured every second day. Wound closure was determined by the following formula: percent closure={(area on day 0−open area)/area on day 0}×100. Wounds were considered closed if moist granulation tissue was no longer apparent, and the wound appeared covered with new epithelium.
Twelve mice were divided in two groups and two wounds per mouse were effectuated as in Example 5. In order to exclude the possibility of mouse-to-mouse variability in wound healing, in this experiment every mouse was treated by the test sample on one wound and by PBS (negative control) on another wound. Thus, one group of 6 mice was treated with 50 ul of SBD.4 (2 mg/wound) on one wound, and by 50 ul of PBS on the other wound, while the second group of 6 mice was treated with becaplermin (positive control; 5 ug in 50 ul CMC—carboxymethylcellulose—gel) on one and PBS on another wound. The concentration of becaplermin was based on the dose used by Johnson & Johnson in their pre-clinical studies (2) and on published studies with PDGF-B, in the db/db model (Greenhalgh et al., 1990).
Treatments were applied on the first day and every second day thereafter. Wound surface were measured every second day. Wound closure for each wound was determined by the formula: percent closure={(area on day 0−open area)/area on day 0}×100. Wounds were considered closed if moist granulation tissue was no longer apparent, and the wound appeared covered with new epithelium. The dynamics of wound closure for the 2 groups is plotted on FIG. 6 (means) and Table II (medians).

[3] = tested on: full thickness wounds in human skin graft on SCID mice; assay: Wound closure in human skin/SCID mouse chimera model; type: in vivo, human skin grafted on SCID mice; conditions: closed/total animals, ointment every two days, SBD.4 (HPLC-purified) in 2% CMC, becaplermin as Regranex
Source text: Human skin graft in severe combined immunodeficient (SCID) mice is a powerful model for evaluating the effect of wound-healing drug-candidates on full-thickness wounds (Juhasz et al., 1993). The wound model in human skin/SCID chimera features normal migration of neutrophils and macrophages to the wound bed, as well as normal expression of growth factors associated with wound-healing, and therefore provides a good approximation of human dermal wound-healing process (Matsumoto et al., 1997). The disadvantage of this model is that it is delicate to handle and time-consuming. The donor skin must be immediately placed on ice and taken to the lab, where a 10-hour grafting procedure follows. We used surgical waste skin obtained under informed consent from a patient undergoing abdominoplasty.
Skin was defatted (if it is not well defatted, the remaining adipose tissue easily undergoes necrosis, which interferes with graft taking. But on the other side, removing the underlying fat tissue too slowly or too zealously can also damage the skin and compromise the graft), and grafted (2.5×2.5 cm) on 15 SCID mice (Charles River Labs), using 10-12 stitches per graft. Here, the challenge is to suture the thick human skin with the much thinner rodent tissue.
After 6 weeks, when the graft anastomosed with the murine skin 8 mm (diameter) full thickness wounds were excised in the human skin. Mice received treatment (ointment every two days) of either becaplermin (Regranex, positive control), 2% carboxymethylcellulose (CMC, negative control) or SBD.4 in 2% CMC on the day of wounding and every second day thereafter. Initial wound closure (defined by the coverage of the base of the wound with bridging granular tissue and new epithelium) was assessed every 3 days.

Row | Substance | induction of capillary-like structures (remodeling response) [1] | wound closure versus PBS ([2]; Example 6, becaplermin 5 ug in 50 ul CMC gel per wound, FIG. 6 means, one-way ANOVA) | Becaplermin (% closure) ([2]; Example 6, day 1) | Becaplermin (% closure) ([2]; Example 6, day 3) | Becaplermin (% closure) ([2]; Example 6, day 5) | Becaplermin (% closure) ([2]; Example 6, day 7) | Becaplermin (% closure) ([2]; Example 6, day 9) | Becaplermin (% closure) ([2]; Example 6, day 11) | Stimulation by becaplermin relative to Control (control = 1) ([2]; day 3) | Stimulation by becaplermin relative to Control (control = 1) ([2]; day 5) | Stimulation by becaplermin relative to Control (control = 1) ([2]; day 7) | Stimulation by becaplermin relative to Control (control = 1) ([2]; day 9) | Stimulation by becaplermin relative to Control (control = 1) ([2]; day 11) | # animals showing initial wound closure ([3]; Day 3) | # animals showing initial wound closure ([3]; Day 6) | # animals showing initial wound closure ([3]; Day 9) | # animals showing initial wound closure ([3]; Day 12) | # animals showing initial wound closure ([3]; Day 16)
1 | bFGF: basic fibroblast growth factor, potent angiogenesis stimulator used as positive control | form capillary-like structures |  |  |  |  |  |  |  |  |  |  |  |  |  |  |  |  | 
2 | Becaplermin: becaplermin (Regranex, Johnson & Johnson), positive control for wound healing |  | not meaningfully different from the control | 0.0% | 1.7% | 11.9% | 41.2% | 65.8% | 86.7% | 1.1 | 0.4 | 1.1 | 1.3 | 1.3 | 0/5 | 1/5 | 2/4 | 4/4 | 4/4
